For the assay, the target named is Recombinant human LSD1 (Homo sapiens, UniProt O60341). Nature of the assay: LSD1 inhibition assay (HTRF LSD1 Histone H3K4 mono-demethylation assay, me1->me0). The format is biochemical. The following applies: 20 nM recombinant human LSD1, 95 nM H3K4(me1) biotinylated peptide, 15 min preincubation, 60 min at 25° C., read-out: LSD1 inhibition IC50 (nM range). In outline: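 Recombinant human LSD1 (20 nM) pre-incubated 15 min with 10 semi-log compound doses, then 95 nM biotinylated H3K4me1 peptide for 60 min at 25 °C in pH 8.5 Tris/NaCl buffer with 10 μM FAD, 1 mM DTT. HTRF me0-antibody read after 90 min; IC50 from 4-parameter fit.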

As to `N#Cc1ccc(-c2cccc(C[C@@H]3CNCCO3)c2-c2ccno2)cc1F` (single isomer, unassigned) [Example 13], the 50% inhibitory concentration (IC50) (usually the midpoint of a concentration-inhibition curve) is 10 to 25 nM. As to `COC1(C)CCN(c2ccc(CC3CNCCO3)cc2-c2ccc(C#N)c(F)c2)CC1` (centres unmarked) [Example 61, 3-fluoro-2′-(4-methoxy-4-methylpiperidin-1-yl)-5′-[(morpholin-2-yl)methyl]-[1,1′-biphenyl]-4-carbonitrile], the IC50 fell in the range of 100 to 1000 nM. Turning to `Cc1cc(CN2C[C@@H]3[C@@H](N)[C@@H]3C2)c(Cl)c(-c2ccc(C#N)c(F)c2)c1` [Example 347, 3'-{[(1R,5S,6R)-6-amino-3-azabicyclo[3.1.0]hexan-3-yl]methyl}-2'-chloro-3-fluoro-5'-methyl-[1,1'-biphenyl]-4-carbonitrile], the concentration for half-maximal inhibition (IC50) is 100 to 1000 nM. On to `N#Cc1ccc(-c2cccc(C[C@H]3CNCCO3)c2C2=CCOC2)cc1F` (single isomer, unassigned) [Example 22], for which the IC50 lay in the range of 10 to 25 nM. As for `COCc1ncc(-c2ccc(CC3CNCCO3)cc2-c2ccc(C#N)c(F)c2)o1` (centres unmarked) [Example 130, 3-fluoro-2′-[2-(methoxymethyl)-1,3-oxazol-5-yl]-5′-[(morpholin-2-yl)methyl]-[1,1′-biphenyl]-4-carbonitrile], the figure is > 1000 nM; as for `COC1CCN(c2ccc(CN3[C@@H]4CC[C@H]3[C@@H](N)C4)cc2-c2ccc(C#N)c(F)c2)CC1` (racemic) [Example 260, 5'-{[(1S,2S,4R)-2-amino-7-azabicyclo[2.2.1]heptan-7-yl]methyl}-3-fluoro-2'-(4-methoxypiperidin-1-yl)-[1,1'-biphenyl]-4-carbonitrile], 10 to 25 nM; as for `N#Cc1ccc(-c2cccc(C[C@@H]3CNCCO3)c2-c2ocnc2F)cc1F` (single isomer, unassigned) [Example 26], < 10 nM. Regarding `N#Cc1ccc(-c2cccc(CC3CNCCO3)c2-c2cccnc2)cc1F` (centres unmarked) [Example 32, 3-fluoro-3′-[(morpholin-2-yl)methyl]-2′-(pyridin-3-yl)-[1,1′-biphenyl]-4-carbonitrile], the IC50 was 25 to 100 nM.

Consider `N#Cc1ccc(-c2cccc(CN3[C@H]4CC[C@H](N)[C@@H]3CC4)c2Cl)cc1F` (racemic) [Example 282, 3'-{[(1S,2S,5S)-2-amino-8-azabicyclo[3.2.1]octan-8-yl]methyl}-2'-chloro-3-fluoro-[1,1'-biphenyl]-4-carbonitrile], for which the 50% inhibitory concentration (IC50) was 100 to 1000 nM.

Regarding `Cc1ccncc1-c1ccc(CC2CNCCO2)cc1-c1ccc(C#N)c(F)c1` (centres unmarked) [Example 124, 3-fluoro-2′-(4-methylpyridin-3-yl)-5′-[(morpholin-2-yl)methyl]-[1,1′-biphenyl]-4-carbonitrile], the IC50 was 100 to 1000 nM.

For `N#Cc1ccc(-c2cc(CC3CNCCO3)ccc2NCc2cnn3c2CCCC3)cc1F` (centres unmarked) [Example 117, 3-fluoro-5′-[(morpholin-2-yl)methyl]-2′-[{{4H,5H,6H,7H-pyrazolo[1,5-a]pyridin-3-yl}methyl)amino]-[1,1′-biphenyl]-4-carbonitrile], the IC50 was > 1000 nM.

As for `Cn1nc2ccc(-c3ccc(CN4C[C@]5(N)CC[C@H]4C5)cc3-c3ccc(C#N)c(F)c3)cc2c1Cl` [Example 263, 5'-{[(1S,4S)-4-amino-2-azabicyclo[2.2.1]heptan-2-yl]methyl}-2'-(3-chloro-2-methyl-2H-indazol-5-yl)-3-fluoro-[1,1'-biphenyl]-4-carbonitrile], the IC50 is < 10 nM.

Consider `N#Cc1ccc(-c2cccc(CN3CCC4(CNC4)C3)c2Cl)cc1F` [Example 341, 2'-chloro-3'-({2,6-diazaspiro[3.4]octan-6-yl}methyl)-3-fluoro-[1,1'-biphenyl]-4-carbonitrile], for which the 50% inhibitory concentration (IC50) was 100 to 1000 nM. As for `N#Cc1ccc(-c2cccc(CC3CNCCO3)c2-c2ncco2)cc1F` (centres unmarked) [Example 65, 3-fluoro-3′-[(morpholin-2-yl)methyl]-2′-(1,3-oxazol-2-yl)-[1,1′-biphenyl]-4-carbonitrile], the figure is > 1000 nM.

For the origin of these results see patent US20260209214A1, “LSD1 MODULATORS” (RECURSION PHARMACEUTICALS, INC., priority 2022, published 2026).
